Experimental data: US11091501B2, “Heterocyclic compounds as RSV inhibitors” (Enanta Pharmaceuticals, Inc., priority 2017, dated 2021)
pEC50: −log10 of the molar value.

Tested on: Human RSV-A (“Long” strain)
Assay: RSV in vitro cytoprotection assay (CPE, ATPlite) in HEp-2 cells
Format: cell-based
Conditions: human respiratory syncytial virus, 96 h; HEp-2 cells, 4-day incubation, ATPlite readout; read-out: Human RSV-A (“Long” strain) EC50
Excerpt: RSV is a single stranded negative sense RNA virus that causes respiratory tract infections which can be dangerous to infants, the elderly, and immunosuppressed individuals. Currently there is no vaccine, and therapeutic options are both costly and of limited effectiveness. These approved treatments are Ribavirin, and Palivizumab/Synagis (a monoclonal antibody). RSV has two genotypes, A and B, which differ primarily in the structure of the virus' surface “G” attachment protein. Our current primary screen focuses on RSV-A and uses an in vitro cytoprotection assay where compounds are added in 2-fold dilutions to cells which are then subjected to fully replicative viral particles. Cell viability is measured several days later along with separate measurements of compound cytotoxicity. This report focuses on the results of our most recent screening of compounds.
HEp-2 cells, (originally derived from tumors grown in irradiated-cortisonised weanling rats that had been injected with epidermoid carcinoma tissue from a person's larynx, but later found to be indistinguishable from HeLa cells by PCR DNA analysis), were used for the culturing of genotype A, “Long” strain RSV. Flasks were inoculated with RSV and viral stocks were collected once cytopathic effect (CPE) was greater than 90%. Viral stocks in 25% sucrose media were snap frozen using liquid nitrogen to increase viral stability. Viral stock titers were quantified by tissue culture infectious dose 50% (TCID50) using 8,000 cells per well and 3-fold viral dilutions across a 96-well plate, cultured for 4 days.
Following extensive parameter testing, the final assay is run as follows: HEp-2 cells are seeded into the inner 60 wells of a 96-well plate at 8,000 cells per well in a volume of 50 μL using Growth Media (DMEM without phenol red, 1% L-Glut, 1% Penn/Strep, 1% nonessential amino acids, 10% FBS). 2-Fold serial dilutions of control and test compounds are added to the wells in duplicate in a total volume of 25 μL. Viral stock is then added to the wells in a volume of […] the total volume of each well to 100 μL. Each 96-well plate has a control column of 6 wells with cells and virus but no compound (negative control, max CPE), a column with cells but no compound or virus (positive control, minimum CPE), and a column with no cells or virus or compound (background plate/reagent control). The control wells with cells but no virus are given an additional 25 uL of growth media containing an equal quantity of sucrose as those wells receiving the viral stock in order to keep consistent in media and volume conditions. The outer wells of the plate are filled with 125 μL of growth media to act as a thermal and evaporative moat around the test wells. Following a 4-day incubation period, the plates are read using ATPlite (50 uL added per well), which quantifies the amount of ATP (a measure of cell health) present in each well. Assay plates are read using the Envision luminometer. In parallel, cytotoxicity is examined on an additional 96-well plate treated in an identical manner, but substituting the 25 μL of viral stock for 25 μL of growth media. […] EC50 ranges are as follows: A<0.01 μM; B 0.01-0.05 μM; C>0.05 μM.

Row | SMILES | pEC50
1 | Cc1cnc(N2CC3(CCOCC3)C2)c(C(=O)Nc2ccc(C(=O)N3CCc4cc(-c5c[nH]c6c(Cl)cccc56)sc4-c4ccc(F)cc43)cc2)c1 [Example 175] | < 7.30
2 | O=C(Nc1c(F)cccc1Cl)c1cc2c(s1)-c1ccc(F)cc1N(C(=O)c1ccc(NC(=O)c3cc(C(F)F)cnc3N3CC4(CCOCC4)C3)cc1)CC2 [Example 145] | 7.30 to 8.00
3 | CC1(C)CCN(c2ncccc2C(=O)Nc2ccc(C(=O)N3CCc4cc(C(=O)Nc5c(F)cccc5F)sc4-c4ccc(F)cc43)cc2)CCS1(=O)=O [Example 49] | < 7.30
4 | Cc1cnc(N2CC3(CCOCC3)C2)c(C(=O)Nc2ccc(C(=O)N3CCc4cc(-c5nc(C)co5)sc4-c4ccc(F)cc43)cc2)c1 [Example 157] | 7.30 to 8.00
5 | Cc1ccc(C(=O)Nc2ccc(C(=O)N3CCc4c(sc(NC(=O)c5c(F)cccc5F)c4F)-c4ccccc43)cc2)c(N2CC3(CCOCC3)C2)n1 [Example 303] | 7.30 to 8.00
6 | O=C(Nc1c(F)cc(F)cc1F)c1cc2c(s1)-c1cc(F)c(F)cc1N(C(=O)c1ccc(NC(=O)c3cc(F)cnc3N3CC4(CCOCC4)C3)cc1)CC2 [Example 71] | 7.30 to 8.00
7 | Cc1cnc(N2CC3(CCOCC3)C2)c(C(=O)Nc2ccc(C(=O)N3CCc4cc(-c5c[nH]c6ccc(C)cc56)sc4-c4ccc(F)cc43)cc2)c1 [Example 176] | < 7.30
8 | O=C(Nc1c(F)cccc1F)c1cc2c(s1)-c1ccc(F)cc1N(C(=O)c1ccc(NC(=O)c3cccnc3-c3ccncc3)cc1)CC2 [Example 63] | < 7.30
9 | Cc1cnc(N2CC3(CCOCC3)C2)c(C(=O)Nc2ccc(C(=O)N3CCc4c(sc(C(=O)Nc5ncc(C(F)(F)F)s5)c4F)-c4ccccc43)cc2)c1 [Example 225] | < 7.30
10 | O=C(Nc1ccc(C(=O)N2CCc3cc(-c4nc5cccc(Cl)c5[nH]4)sc3-c3ccc(F)cc32)cc1)c1cc(F)cnc1N1CC2(CCOCC2)C1 [Example 44] | 7.30 to 8.00
11 | O=C(Nc1ccc(C(=O)N2CCc3cc(-c4nc5ccc(F)cc5[nH]4)sc3-c3ccc(F)cc32)cc1)c1cccnc1N1CC2(CCOCC2)C1 [Example 39] | 7.30 to 8.00
12 | O=C(Nc1c(F)cccc1Cl)c1cc2c(s1)-c1cc(F)c(F)cc1N(C(=O)c1ccc(NC(=O)c3cc(F)cnc3N3CC4(CCOCC4)C3)cc1)CC2 [Example 74] | 7.30 to 8.00
13 | O=C(Nc1c(F)cccc1F)c1cc2c(s1)-c1ccc(F)cc1N(C(=O)c1ccc(NC(=O)c3cccnc3C3=CCOCC3)cc1)CC2 [Example 60] | < 7.30
14 | O=C(Nc1ccc(C(=O)N2CCc3cc(-c4nc5ccccc5[nH]4)sc3-c3ccc(F)cc32)cc1)c1cc2ccccc2nc1N1CC2(CCOCC2)C1 [Example 10] | 7.30 to 8.00
15 | O=C(Nc1ccc(C(=O)N2CCc3cc(-c4nnco4)sc3-c3ccc(F)cc32)cc1)c1cccnc1N1CC2(CCOCC2)C1 [Example 142] | < 7.30
16 | O=C(Nc1c(F)cc(F)cc1Cl)c1cc2c(s1)-c1ccc(F)cc1N(C(=O)c1ccc(NC(=O)c3cc4ccccc4nc3N3CCS(=O)(=O)CC3)cc1)CC2 [Example 33] | < 7.30
17 | O=C(Nc1c(F)cccc1F)c1cc2c(s1)-c1ccc(F)cc1N(C(=O)c1ccc(NC(=O)c3cccnc3N3CCCC(F)(F)CC3)cc1)CC2 [Example 52] | < 7.30
18 | O=C(Nc1ccc(C(=O)N2CCc3cc(-c4nc5ccccc5[nH]4)sc3-c3ccc(C(F)(F)F)cc32)cc1)c1cccnc1N1CC2(CCOCC2)C1 [Example 86] | < 7.30
19 | Cc1ccc(C(=O)Nc2ccc(C(=O)N3CCc4cc(C(=O)Nc5c(C)cccc5F)sc4-c4ccccc43)cc2)c(N2CC3(CCOCC3)C2)n1 [Example 276] | 7.30 to 8.00
20 | O=C(Nc1c(F)cc(F)cc1Cl)c1cc2c(s1)-c1ccc(F)cc1N(C(=O)c1ccc(NC(=O)c3cc4c(nc3N3CC5(CCOCC5)C3)CCC4)cc1)CC2 [Example 66] | > 8.00
21 | Cc1cnc(N2CC3(CCOCC3)C2)c(C(=O)Nc2ccc(C(=O)N3CCc4cc(-c5ncc(C)o5)sc4-c4ccc(F)cc43)cc2)c1 [Example 156] | 7.30 to 8.00
22 | O=C(Nc1c(F)cccc1F)c1cc2c(s1)-c1ccc(F)cc1N(C(=O)c1ccc(NC(=O)c3cc(F)cnc3N3CC4(CCOCC4)C3)cc1)CC2 [Example 35] | > 8.00
23 | O=C(Nc1c(F)cc(F)cc1F)c1cc2c(s1)-c1c(cc(F)c(F)c1F)N(C(=O)c1ccc(NC(=O)c3cccnc3N3CC4(CCOCC4)C3)cc1)CC2 [Example 79] | 7.30 to 8.00
24 | Cc1cnc(N2CC3(CCOCC3)C2)c(C(=O)Nc2ccc(C(=O)N3CCc4cc(-c5ncc(C)[nH]5)sc4-c4ccc(F)cc43)cc2)c1 [Example 187] | > 8.00

Further lines, results first:

Row | pEC50 | SMILES
25 | > 8.00 | Cc1cnc(N2CC3(CCOCC3)C2)c(C(=O)Nc2ccc(C(=O)N3CCc4c(sc(C(=O)Nc5c(F)cc(F)cc5F)c4F)-c4ccccc43)cc2)c1 [Example 94]
26 | > 8.00 | Cc1cnc(N2CC3(CCOCC3)C2)c(C(=O)Nc2ccc(C(=O)N3CCc4cc(C(=O)Nc5c(C)cccc5C#N)sc4-c4ccc(F)cc43)cc2)c1 [Example 11]
27 | > 8.00 | Cc1cnc(N2CC3(CCOCC3)C2)c(C(=O)Nc2ccc(C(=O)N3CCc4cc(NC(=O)OC5CCC5)sc4-c4ccccc43)cc2)c1 [Example 292]
28 | > 8.00 | Cc1ccc(C(=O)Nc2ccc(C(=O)N3CCc4cc(NC(=O)c5ncccc5F)sc4-c4ccccc43)cc2)c(N2CC3(CCOCC3)C2)n1 [Example 278]
29 | > 8.00 | Cc1cnc(N2CC3(CCOCC3)C2)c(C(=O)Nc2ccc(C(=O)N3CCc4c(sc(NC(=O)c5c(F)cccc5F)c4F)-c4ccccc43)cc2)c1 [Example 304]
30 | > 8.00 | Cc1ccc(C(=O)Nc2ccc(C(=O)N3CCc4cc(C(=O)Nc5c(F)cccc5C(F)(F)F)sc4-c4ccc(F)cc43)cc2)c(N2CC3(CCOCC3)C2)n1 [Example 113]
31 | > 8.00 | Cc1ccc(C(=O)Nc2ccc(C(=O)N3CCc4cc(C(=O)Nc5c(C)cccc5C)sc4-c4ccc(F)cc43)cc2)c(N2CC3(CCOCC3)C2)n1 [Example 116]
32 | > 8.00 | Cc1cnc(N2CC3(CCOCC3)C2)c(C(=O)Nc2ccc(C(=O)N3CCc4sc(C(=O)Nc5c(F)cccc5F)cc4-c4ccccc43)cc2)c1 [Example 261]
33 | > 8.00 | Cc1cnc(N2CC3(CCOCC3)C2)c(C(=O)Nc2ccc(C(=O)N3CCc4cc(NC(=O)c5ccccc5F)sc4-c4ccccc43)cc2)c1 [Example 285]
34 | > 8.00 | Cc1ccc(C(=O)Nc2ccc(C(=O)N3CCc4c(sc(C(=O)Nc5ncccc5F)c4F)-c4ccccc43)cc2)c(N2CC3(CCOCC3)C2)n1 [Example 218]
35 | > 8.00 | Cc1cnc(N2CC3(CCOCC3)C2)c(C(=O)Nc2ccc(C(=O)N3CCc4cc(C(=O)Nc5c(F)cc(F)cc5F)sc4-c4ccc(F)cc43)cc2)c1 [Example 13]
36 | > 8.00 | Cc1ccc(C(=O)Nc2ccc(C(=O)N3CCc4cc(C(=O)Nc5c(C)cccc5F)sc4-c4ccc(F)cc43)cc2)c(N2CC3(CCOCC3)C2)n1 [Example 112]
37 | > 8.00 | Cc1ccc(C(=O)Nc2ccc(C(=O)N3CCc4c(sc(C(=O)Nc5c(F)cccc5F)c4F)-c4ccccc43)cc2)c(N2CC3(CCOCC3)C2)n1 [Example 213]
38 | > 8.00 | Cc1cnc(N2CC3(CCOCC3)C2)c(C(=O)Nc2ccc(C(=O)N3CCc4cc(NC(=O)c5ncccc5F)sc4-c4ccccc43)cc2)c1 [Example 283]
39 | > 8.00 | Cc1cccc(F)c1NC(=O)c1cc2c(s1)-c1ccc(F)cc1N(C(=O)c1ccc(NC(=O)c3cc4ccccc4nc3N3CC4(CCOCC4)C3)cc1)CC2 [Example 14]
40 | > 8.00 | O=C(Nc1c(F)cccc1Cl)c1cc2c(o1)-c1ccc(F)cc1N(C(=O)c1ccc(NC(=O)c3cc4c(nc3N3CC5(CCOCC5)C3)CCC4)cc1)CC2 [Example 240]
41 | > 8.00 | Cc1cnc(N2CC3(CCOCC3)C2)c(C(=O)Nc2ccc(C(=O)N3CCc4cc(C(=O)Nc5nccs5)sc4-c4ccc(F)cc43)cc2)c1 [Example 132]
42 | > 8.00 | O=C(Nc1c(F)cccc1C(F)(F)F)c1cc2c(o1)-c1ccccc1N(C(=O)c1ccc(NC(=O)c3cc4c(nc3N3CC5(CCOCC5)C3)CCC4)cc1)CC2 [Example 248]
43 | > 8.00 | O=C(Nc1ccc(C(=O)N2CCc3cc(-c4nc5ccccc5[nH]4)oc3-c3ccccc32)cc1)c1cc2c(nc1N1CC3(CCOCC3)C1)CCC2 [Example 260]
44 | > 8.00 | Cc1ccc(C(=O)Nc2ccc(C(=O)N3CCc4cc(C(=O)Nc5ccccc5F)oc4-c4ccccc43)cc2)c(N2CC3(CCOCC3)C2)n1 [Example 258]

Same assay, conditions: human respiratory syncytial virus, HEp-2; control compound of the RSV assay; read-out: EC50

Row | SMILES | pEC50
45 | O=C(Nc1ccccc1F)N[C@H]1N=C(c2ccccc2)c2ccccc2NC1=O [RSV-604, reference compound] | ~5.62
